Reference: patent US20130259986A1, “COMPOSITIONS AND METHODS FOR INHIBITING PRECIPITATION OF DYES IN A BEVERAGE” (Kraft Foods Global Brands LLC, priority 2012, published 2013)

Columns and labels:
[1] = Example 5: precipitation from 90× electrolyte beverage product with 0.45 wt % Red 40 and added benzaldehyde solution or propylene glycol; format: physicochemical
Experimental: A 90× electrolyte beverage product was made without flavor containing 0.45 wt % Red 40, and a 3.0% benzaldehyde solution was made with propylene glycol. The benzaldehyde solution was then added back to the flavorless base at various levels up to 10%. As a control, the same variants were made without benzaldehyde solution, but with 100% propylene glycol, to confirm that any precipitation was directly due to the benzaldehdye and not propylene glycol. The formulations are as follows: […]

[2] = Observation of precipitate in model solutions of azo-dye, salt, benzaldehyde and water; format: physicochemical; details: for precipitation of a single azo-dye from solutions: solutions with (1) blends of two or more salts, (2) sweetener, (3) fiber (inulin) with sodium chloride; for precipitate in a solution of the substance and water: substance and water only
Description: It was observed that many solutions fail to keep a single azo-dye species stable in the presence of electrolyte ions. For example, the azo-dye (Yellow 5, Yellow 6, or Red 40) precipitated from solutions containing the following: (1) blends of two or more salts (including potassium chloride, tripotassium phosphate, sodium chloride, and magnesium chloride) with a single azo-dye; (2) sweetener (including sucrose, fructose, and raw honey) and a single azo-dye; and (3) fiber (such as inulin) with sodium chloride and a single azo-dye.
Such precipitate is believed to be crystals of the azo-dye or possibly even co-crystals of the azo-dye with sodium chloride, sodium ions, chloride ions, or sodium and chloride ions. It is believed that the presence of an ion (not limited to sodium and/or chloride) creates an unfavorable environment for the azo-dye to exist in and causes the azo-dye to precipitate or crystallize. However, this crystallization or precipitation is not observed when levels of salt or azo-dye are below the threshold for the reaction to occur.
While wishing to not be bound by theory, a solution of benzaldehyde, salt, Red 40, and water causes precipitation through a different mechanism when compared to precipitate found from solutions of salt, an azo-dye, and water. […] Such precipitate is believed to be due the complexation of salt, Red 40, and benzaldehyde. This complexation may occur due to the thermodynamic unfavorability of all three components to exist in solution with one another. The precipitation found in this system appears to be more sediment-like rather than crystal-like precipitate found in a solution of Red 40, salt, and water. However, crystals or co-crystals may exist within the salt, Red 40, and benzaldehyde complexation and this complexation is not observed when levels of salt, azo-dye, or benzaldehyde are below the threshold for the reaction to occur.

[3] = 4 % added to 90 % electrolyte base (0.45 wt % Red 40), 0.12% benzaldehyde for the benzaldehyde solution
[4] = 6 % added to 90 % electrolyte base (0.45 wt % Red 40), 0.18% benzaldehyde for the benzaldehyde solution
[5] = 8 % added to 90 % electrolyte base (0.45 wt % Red 40), 0.24% benzaldehyde for the benzaldehyde solution
[6] = 10 % added to 90 % electrolyte base (0.45 wt % Red 40), 0.3% benzaldehyde for the benzaldehyde solution

Row | precipitate / complexation in a solution of salt, azo-dye, benzaldehyde, and water [2] | precipitation of a single azo-dye from solutions [2] | precipitate in a solution of the substance and water [2] | SMILES | Observations after 2 months at 70 F. (room temp) ([1]; 0.1 % added to 90 % electrolyte base (0.45 wt % Red 40)) | Observations after 2 months at 70 F. (room temp) ([1]; 0.25 % added to 90 % electrolyte base (0.45 wt % Red 40)) | Observations after 2 months at 70 F. (room temp) ([1]; 0.5 % added to 90 % electrolyte base (0.45 wt % Red 40)) | Observations after 2 months at 70 F. (room temp) ([1]; 1 % added to 90 % electrolyte base (0.45 wt % Red 40)) | Observations after 2 months at 70 F. (room temp) ([1]; 2 % added to 90 % electrolyte base (0.45 wt % Red 40)) | Observations after 2 months at 70 F. (room temp) [1, 3] | Observations after 2 months at 70 F. (room temp) [1, 4] | Observations after 2 months at 70 F. (room temp) [1, 5] | Observations after 2 months at 70 F. (room temp) [1, 6] | benzaldehyde content at which the system is free of precipitation ([1]; 90× electrolyte concentrate with 0.45 wt % Red 40, stored for up to 2 months)
1 | – | – | – | CC(O)CO (stereo not drawn) [PG 100%, Propylene Glycol] | No precipitation | No precipitation | No precipitation | No precipitation | No precipitation | No precipitation | No precipitation | No precipitation | No precipitation | –
2 | not stable and produces precipitate | precipitated | free of precipitate | COc1cc(S(=O)(=O)[O-])c(C)cc1N=Nc1c(O)ccc2cc(S(=O)(=O)[O-])ccc12.[Na+].[Na+] [Red 40] | – | – | – | – | – | – | – | – | – | –
3 | no complexations were observed | precipitated | free of precipitate | O=C(O)c1nn(-c2ccc(S(=O)(=O)O)cc2)c(O)c1N=Nc1ccc(S(=O)(=O)O)cc1 [Yellow 5] | – | – | – | – | – | – | – | – | – | –
4 | no complexations were observed | precipitated | free of precipitate | O=S(=O)([O-])c1ccc(N=Nc2c(O)ccc3cc(S(=O)(=O)[O-])ccc23)cc1.[Na+].[Na+] [Yellow 6] | – | – | – | – | – | – | – | – | – | –

Row | SMILES | precipitate / complexation in a solution of salt, azo-dye, benzaldehyde, and water [2] | precipitation of a single azo-dye from solutions [2] | precipitate in a solution of the substance and water [2] | Observations after 2 months at 70 F. (room temp) ([1]; 0.1 % added to 90 % electrolyte base (0.45 wt % Red 40)) | Observations after 2 months at 70 F. (room temp) ([1]; 0.25 % added to 90 % electrolyte base (0.45 wt % Red 40)) | Observations after 2 months at 70 F. (room temp) ([1]; 0.5 % added to 90 % electrolyte base (0.45 wt % Red 40)) | Observations after 2 months at 70 F. (room temp) ([1]; 1 % added to 90 % electrolyte base (0.45 wt % Red 40)) | Observations after 2 months at 70 F. (room temp) ([1]; 2 % added to 90 % electrolyte base (0.45 wt % Red 40)) | Observations after 2 months at 70 F. (room temp) [1, 3] | Observations after 2 months at 70 F. (room temp) [1, 4] | Observations after 2 months at 70 F. (room temp) [1, 5] | Observations after 2 months at 70 F. (room temp) [1, 6] | benzaldehyde content at which the system is free of precipitation ([1]; 90× electrolyte concentrate with 0.45 wt % Red 40, stored for up to 2 months)
5 | O=Cc1ccccc1 [benzaldehyde] | – | – | free of precipitate | – | – | – | – | – | formed precipitation | formed precipitation | formed precipitation within hours | formed precipitation within hours | up to 0.11%
